# Measured values published in PubChem BioAssay AID1996.
# Details: buffer; pH 7.4; 200.0 µM
row,SMILES,solubility kinetic [µg/mL]
1,O=C(NCc1ccc2c(c1)OCO2)c1ccccc1Cl,40.8
2,S=C(Nc1cccnc1)NC1CC2CCC1C2 (stereo not drawn),> 37.1
3,CCN1CCN(c2nc(-c3ccc(F)cc3)cc(=O)[nH]2)CC1,> 45.4
4,Cc1cccc2c(=O)cc(C)n(CC(N)=O)c12,> 34.5
5,CN1C(=O)C(=O)/C(=C(/O)c2ccccc2)C1c1ccc(Br)cc1 (stereo not drawn),> 55.8
6,COc1ccc(CCN(C)C2CC(=O)N(c3ccccc3)C2=O)cc1OC (stereo not drawn),> 55.3
7,O=c1ccc(C(F)(F)F)cn1Cc1cc(=O)n2ccsc2n1,44.2
8,Cl.O=C(O)CSc1nc(-c2ccccc2)c(-c2ccccc2)[nH]1,> 52
9,COc1cc(CC(=O)Nc2cccc(S(=O)(=O)N(C)c3ccccc3)c2)cc(OC)c1OC,14.1
10,COc1ccc(/C=C/c2cc(C(F)(F)F)on2)cc1,1.3
11,CN(C(=O)CO/N=C/c1ccc(Cl)cc1)c1ccccc1,44.6
12,O=C(COC(=O)[C@@H]1CCCN1C(=O)c1cccs1)Nc1cccc([N+](=O)[O-])c1,2.8
13,Cc1ccnc(N2CCCC(C(=O)Nc3ccc(C)c(C)c3)C2)n1 (stereo not drawn),1.4
14,Cc1cc(=O)[nH]c(SCC(=O)c2ccc(O)c(O)c2)n1,> 43.8
15,O=C(Cc1ccc(F)cc1)OCN1C(=O)c2ccccc2C1=O,39.8
16,O=C(COC(=O)c1cccnc1Cl)Nc1ccc(S(=O)(=O)N2CCOCC2)cc1,57.5
17,CC(C)On1c(SCC(=O)N(C)C)nc2ccccc2c1=O,> 48.2
18,Cc1ccc(CCC(=O)Nc2ccc(Cl)cc2)o1,23.9
19,COc1cc(/C=C(\C#N)C(N)=O)ccc1OCc1c(C)no[n+]1[O-],14.6
20,COc1ccc(NC(=S)NC2CC3CCCC(C2)N3C2CC2)cc1 (stereo not drawn),> 51.8
21,O=C(CN1C(=O)C(=O)N(C2CCCC2)C1=O)Nc1cc(Cl)ccc1[N+](=O)[O-],26.6
22,CC(C)CCn1c(N2CCCC2)nc2c1c(=O)[nH]c(=O)n2C,> 45.8
23,CCOc1ccc(S(=O)(=O)N(CC)CC(=O)N2CCCC2)cc1,> 51.1
24,CS(=O)(=O)Nc1ccc(C(=O)Nc2ccc3c(c2)OCO3)cc1,6.2

row,SMILES,solubility kinetic [µg/mL]
1,COc1nc(C)ccc1-c1noc(-c2cccs2)n1,2.5
2,Cc1ccc(OCC(=O)NCCNC(=O)c2cnccn2)cc1,40.9
3,CN1C(=O)C(=Cc2ccc(N3CCCCCC3)cc2)C(=O)N(C)C1=O,7
4,O=C1CC(c2ccccc2)CC(=O)N1c1ccccc1,11.3
5,Cc1ccccc1N1CCN(CC(=O)NCc2ccc(Cl)cc2)CC1,19.6
6,O=[N+]([O-])c1ccc(S(=O)(=O)Nc2ccc3c(c2)OCCO3)cc1,45.2
7,Cc1cc(C(=O)Nc2ccccc2C(=O)O)oc1C,31.3
8,Cc1ccc(NC(=S)NCC(O)c2ccccc2)c(C)c1 (stereo not drawn),44.3
9,CCC(C)Nc1nc(C)nc2c1oc1ccccc12.Cl (stereo not drawn),41.3
10,COc1ccc(C(=O)CCC(=O)Nc2cccnc2)cc1OC,> 47.2
11,COc1ccccc1C(=O)Nc1sc2c(c1C(N)=O)CCCC2,< 0.4
12,COc1ccccc1NC(=S)N(Cc1cccnc1)Cc1ccco1,48.3
13,O=C(/C=C/c1ccc(Cl)cc1)Nc1nccs1,1.1
14,O=C(COC(=O)c1c[nH]c2ccccc12)NC1CCCCC1,13.4
15,O=C1CNC(=O)/C(=C\c2ccccc2)N1,> 30.3
16,Cc1cc(C)nc(NC(=O)c2ccc(Br)cc2)n1,> 45.9
17,CCCN(Cc1ccccc1)C(=S)Nc1ccc(OCC)cc1,17.9
18,COc1ccc2[nH]cc(CCNC(=O)c3ccc([N+](=O)[O-])cc3)c2c1,26.3
19,COc1ccccc1CN1CCNC(=O)C1CC(=O)O (stereo not drawn),> 41.7
20,Cc1ccccc1C(=O)Nc1ccccc1C(=O)NC1CC1,> 44.2
21,CCOc1ccc2nc(SCC3CC3(Cl)Cl)[nH]c2c1 (stereo not drawn),29.4
22,CC(NC(=O)CCNC(=O)c1ccccc1Cl)c1ccc(-n2ccnc2)cc1 (stereo not drawn),> 59.5
23,COc1ccc(/C=C/C(=O)N(C)C2CCCCC2)cc1Br,18
24,Cc1cc(OC(=O)c2ccccc2Cl)ccc1N1C(=O)CCC1=O,19

row,SMILES,solubility kinetic [µg/mL]
1,Cc1cc(F)ccc1NS(=O)(=O)c1cccc2nsnc12,44.2
2,CCN(Cc1nc(-c2ccccc2)no1)C(=O)c1ccoc1C,40.2
3,COc1ccc(NC(=O)Cc2ccc(C)c(C)c2)cc1Cl,2.1
4,COC(=O)C1Cc2c([nH]c3ccccc23)C(C(C)C)N1 (stereo not drawn),33.4
5,C#CCOc1c(Cl)cc(/C=C2/C(=O)ON=C2C)cc1OCC,39.4
6,CCCCN(C(=O)c1ccc2c(c1)OCO2)C1CCS(=O)(=O)C1 (stereo not drawn),> 50.9
7,CC(C)C(=O)Nc1c(-c2cccc(Cl)c2)c(=O)c2ccccc2n1C,10.1
8,CC(Cc1ccccc1)NC(=O)CC(c1ccccc1)c1ccccc1O (stereo not drawn),10.8
9,Cc1ccc(OCC(=O)N2C(C)CCCC2C)c([N+](=O)[O-])n1 (stereo not drawn),> 46.1
10,Cc1cc(C(=O)OCC(=O)Nc2ccccc2C(F)(F)F)on1,> 49.2
11,CC1CCCCN1S(=O)(=O)Cc1ccccc1Cl (stereo not drawn),> 43.2
12,N#CCSc1ccc(-c2nc3ccccc3[nH]2)cn1,17
13,Cc1noc(C)c1S(=O)(=O)NCc1cccc(Cl)c1,> 45.1
14,Cc1ccc(S(=O)(=O)Nc2ccccc2C(=O)N2CCCCC2)cc1,> 53.8
15,CC(OC(=O)c1cccnc1)C(=O)Nc1ccc2c(c1)OCO2 (stereo not drawn),44
16,COC(OC)c1ccc(C#N)c(SCc2ccc(C)cc2)n1,0.4
17,CN(CC(=O)Nc1ccccc1C(F)(F)F)C(=O)C1CC1,> 45
18,COc1ccc(NC(=O)C2CCCN(c3cnccn3)C2)cc1 (stereo not drawn),> 46.9
19,C/C(=N\O)C(C)(C)Nc1ccc(Cl)cc1,32.1
20,O=C1C2C3CCC(O3)C2C(=O)N1c1cccc(F)c1 (stereo not drawn),39.2
21,N/C(=N\OCC(=O)Nc1ccc(F)c(Cl)c1)c1ccccc1,> 48.3
22,O=C(c1cc2cc(Cl)ccc2[nH]1)N1CCC2(CC1)OCCO2,16
23,Cc1ccccc1C(=O)N[C@H](C(=O)OCC(=O)NC1CC1)C(C)C,> 49.9
24,CC(=O)c1sc2nsc(SCCN3CCCC3)c2c1N,46.7

row,SMILES,solubility kinetic [µg/mL]
1,CSC1=N/C(=C/c2cccnc2)C(=O)N1Cc1ccccc1,5.2
2,CCC(CC)C(=O)Nc1ccc(C(=O)Nc2cc(C)on2)cc1,5.7
3,Cc1cc(OCC(=O)N2CCN(CC(=O)N3CCOCC3)CC2)c(C(C)C)cc1Cl,> 65.7
4,O=C(NC1CC2CCCC(C1)N2Cc1ccccc1)C1CCCCC1 (stereo not drawn),> 51.1
5,COc1ccccc1OCCNC(=O)c1ccco1,33.4
6,Cc1c(Cl)cccc1NC(=O)CSC(N)=O,15.6
7,Cc1c(C(=O)C(=O)NCC2CCCO2)c2ccccc2n1C (stereo not drawn),> 45.1
8,Cc1cccc(NC(=O)CN2C(=O)NC3(CCCCCCC3)C2=O)c1C,49
9,CC(=O)NC(=O)c1cnn(-c2ccccc2)c1N,> 36.6
10,O=C(Nc1cccc2ncccc12)c1cc(Br)ccc1Cl,5
11,Cc1ccc(C2C(=O)NC(=O)NC2=O)cc1,27.7
12,O=C(Nc1cccc(S(=O)(=O)N2CCCCCC2)c1)c1cncc(Br)c1,13.1
13,CCCCCCN1C=CC(=C2C(=O)c3ccccc3C2=O)C=C1,< 0.7
14,Cc1ccc(Cl)cc1NC(=O)COC(=O)c1ccccc1O,< 0.7
15,Cl.O=C(OCCN1CCOCC1)c1ccccc1Cl,> 45.9
16,O=C(Cc1ccc(F)cc1)NCCc1cnc[nH]1,> 37.1
17,Cc1ccc(C(=O)OCC(=O)NCc2ccc(F)cc2)o1,> 43.7
18,Cc1cc(C(=O)NCCc2ccc(Cl)cc2)c(C)o1,31.1
19,COc1cc(N=c2ssnc2Cl)c(OC)cc1Cl,15.6
20,O=C(NCCc1ccc(F)cc1)C1CCCO1 (stereo not drawn),27.6
21,O=[N+]([O-])c1cccc(NC(=S)N2CCN(c3ccccn3)CC2)c1,1.2
22,COc1ccc(NC(C)=O)c(C)c1,> 26.9
23,COC(=O)c1c(NC(C)=O)sc(C(=O)Nc2ccccc2F)c1C,< 0.4
24,COc1ccc(C(=O)Nc2cccc3c2CCCC3)cc1OC,1

row,SMILES,solubility kinetic [µg/mL]
1,O=C(OCN1C(=O)c2ccccc2C1=O)c1ccc(Cl)nc1,14.3
2,Cc1cccc(/C=N/NC(=O)c2ccncc2)n1,> 36
3,Cc1ccccc1NS(=O)(=O)c1ccc(C(=O)N(C)CC(=O)Nc2ccccc2Br)cc1,73
4,Cc1cc(-c2onc(C)c2C(=O)Oc2ccc(Cl)cc2)no1,0.5
5,COc1ccc(Cc2c(O)nc(SCC(C)C)[nH]c2=O)cc1,47.2
6,Cn1nccc1NS(=O)(=O)c1ccc(NC(=O)C(F)(F)F)cc1,> 52.2
7,COc1ccc(Br)cc1CNCCc1ccc2c(c1)OCO2,52.3
8,CC(=O)c1cccc(NC(=O)CCC(=O)c2ccc(F)cc2)c1,3.8
9,Cc1ccc(C(O)c2nc3ccccc3n2C)cc1 (stereo not drawn),> 37.8
10,O=C(CN1CCCC1)Nc1ccccc1C(=O)c1ccccc1,44
11,CN1C(=O)NC(c2ccccc2[N+](=O)[O-])C2=C1CCCC2=O (stereo not drawn),> 45.2
12,O=C(Nc1ccncc1)c1c(Cl)cccc1Cl,8.9
13,O=C(NCc1ccccc1)NCC12CC3CC(CC(C3)C1)C2,1.3
14,O=C(NCCC(=O)N1CCc2ccccc21)c1ccco1,> 42.6
15,CCN(CC)CCCN(C(=O)c1ccc(F)cc1)c1nc(-c2ccc(OC)cc2)cs1,62.1
16,Cc1nc2ccc(NS(=O)(=O)c3ccc(F)c(C)c3)cc2[nH]1,> 47.9
17,CCOC(=O)c1c(C)[nH]c(C(=O)N2CCC(C(=O)OCC)CC2)c1C,> 52.6
18,Cc1ccccc1S(=O)(=O)/N=C(/Nc1nc2ccccc2s1)c1ccccc1,1.1
19,CCCCN(C)c1c(N2CCC(C(=O)OCC)CC2)c(=O)c1=O,> 48.4
20,COc1ccc(-c2cc3nc(CCl)[nH]c(=O)c3s2)cc1,2.8
21,CCOC(=O)CNC(=O)Cn1cnc2c(oc3ccccc32)c1=O,> 49.4
22,Cn1c(C(=O)c2ccccc2)nc2ccccc21,24
